The IC50 is the concentration at which inhibition is half-maximal.

This test deals with T1, Human NaV1.7 (Homo sapiens, UniProt Q15858).
T1 construct: expressed in transfected cells; host or cells: Spiking HEK cells (without Kir2.1 transfection)
Kind of test: Ionworks Barracuda (IWB) automated patch clamp assay. The test is classed as cell-based. Conditions: human NaV1.7 in HEK cells, population patch-clamp, state- and use-dependent voltage protocol; read-out: hNaV1.7 IWB-U IC50. How it is done: Ionworks Barracuda (IWB) Automated Patch Clamp Assay (Same Protocol for Both Human and Mouse)
Human NaV1.7 currents were recorded in population patch-clamp mode with the IWB automated electrophysiology system (Molecular Devices, LLC, Sunnyvale, Calif.). Spiking HEK cells (without Kir2.1 transfection) were cultured and prepared for recordings as previously described for IonWorks Quattro testing^1. The external solution consisted of the following (in mM): NaCl 140, KCl 5, CaCl2 2, MgCl2 1, HEPES 10, and glucose 11, pH 7.4, with N-methyl-D-glucamine at 320 mOsmol. […] From a holding potential of −110 mV, currents were elicited by a train of 26 depolarizations of 150 ms duration to −20 mV at a frequency of 5 Hz. Cells were then clamped to −20 mV for a period of 4 minutes in the presence of a single concentration of test compound. Following this compound incubation period, cells were clamped to −110 mV for three seconds to recover unbound channels and put through the same 26 pulse voltage protocol as above. Peak inward current during the 26th pulse to −20 mV in the presence of compound was divided by the peak inward current evoked by the 26th pulse to −20 mV in the absence of compound to determine percent inhibition. Concentration-response curves of percent inhibition as a function of concentration were generated to calculate IC50 values as described in Kornecook, T. J.; Yin, R.; Altmann, S.; et al. Pharmacologic Characterization of AMG8379, a Potent and Selective Small Molecule Sulfonamide Antagonist of the Voltage-Gated Sodium Channel NaV1. 7.
The potency of the compounds of the present invention were evaluated on human NaV1.7 channels using the above described IonWorks Barracuda automated electrophysiology platform that evaluates the ability of compounds to block sodium conductance through NaV1.7 channels. A voltage-protocol that prosecutes both state-dependent as well as use-dependent inhibition was used as these modes of action are thought to be more relevant for the native state of NaV1.7 channels in pain sensing neurons in vivo.
A general note: Patch clamp records ionic current or voltage across a cell membrane.

The structures appear in SMILES notation.

T1 sequence (Q15858 whole entry): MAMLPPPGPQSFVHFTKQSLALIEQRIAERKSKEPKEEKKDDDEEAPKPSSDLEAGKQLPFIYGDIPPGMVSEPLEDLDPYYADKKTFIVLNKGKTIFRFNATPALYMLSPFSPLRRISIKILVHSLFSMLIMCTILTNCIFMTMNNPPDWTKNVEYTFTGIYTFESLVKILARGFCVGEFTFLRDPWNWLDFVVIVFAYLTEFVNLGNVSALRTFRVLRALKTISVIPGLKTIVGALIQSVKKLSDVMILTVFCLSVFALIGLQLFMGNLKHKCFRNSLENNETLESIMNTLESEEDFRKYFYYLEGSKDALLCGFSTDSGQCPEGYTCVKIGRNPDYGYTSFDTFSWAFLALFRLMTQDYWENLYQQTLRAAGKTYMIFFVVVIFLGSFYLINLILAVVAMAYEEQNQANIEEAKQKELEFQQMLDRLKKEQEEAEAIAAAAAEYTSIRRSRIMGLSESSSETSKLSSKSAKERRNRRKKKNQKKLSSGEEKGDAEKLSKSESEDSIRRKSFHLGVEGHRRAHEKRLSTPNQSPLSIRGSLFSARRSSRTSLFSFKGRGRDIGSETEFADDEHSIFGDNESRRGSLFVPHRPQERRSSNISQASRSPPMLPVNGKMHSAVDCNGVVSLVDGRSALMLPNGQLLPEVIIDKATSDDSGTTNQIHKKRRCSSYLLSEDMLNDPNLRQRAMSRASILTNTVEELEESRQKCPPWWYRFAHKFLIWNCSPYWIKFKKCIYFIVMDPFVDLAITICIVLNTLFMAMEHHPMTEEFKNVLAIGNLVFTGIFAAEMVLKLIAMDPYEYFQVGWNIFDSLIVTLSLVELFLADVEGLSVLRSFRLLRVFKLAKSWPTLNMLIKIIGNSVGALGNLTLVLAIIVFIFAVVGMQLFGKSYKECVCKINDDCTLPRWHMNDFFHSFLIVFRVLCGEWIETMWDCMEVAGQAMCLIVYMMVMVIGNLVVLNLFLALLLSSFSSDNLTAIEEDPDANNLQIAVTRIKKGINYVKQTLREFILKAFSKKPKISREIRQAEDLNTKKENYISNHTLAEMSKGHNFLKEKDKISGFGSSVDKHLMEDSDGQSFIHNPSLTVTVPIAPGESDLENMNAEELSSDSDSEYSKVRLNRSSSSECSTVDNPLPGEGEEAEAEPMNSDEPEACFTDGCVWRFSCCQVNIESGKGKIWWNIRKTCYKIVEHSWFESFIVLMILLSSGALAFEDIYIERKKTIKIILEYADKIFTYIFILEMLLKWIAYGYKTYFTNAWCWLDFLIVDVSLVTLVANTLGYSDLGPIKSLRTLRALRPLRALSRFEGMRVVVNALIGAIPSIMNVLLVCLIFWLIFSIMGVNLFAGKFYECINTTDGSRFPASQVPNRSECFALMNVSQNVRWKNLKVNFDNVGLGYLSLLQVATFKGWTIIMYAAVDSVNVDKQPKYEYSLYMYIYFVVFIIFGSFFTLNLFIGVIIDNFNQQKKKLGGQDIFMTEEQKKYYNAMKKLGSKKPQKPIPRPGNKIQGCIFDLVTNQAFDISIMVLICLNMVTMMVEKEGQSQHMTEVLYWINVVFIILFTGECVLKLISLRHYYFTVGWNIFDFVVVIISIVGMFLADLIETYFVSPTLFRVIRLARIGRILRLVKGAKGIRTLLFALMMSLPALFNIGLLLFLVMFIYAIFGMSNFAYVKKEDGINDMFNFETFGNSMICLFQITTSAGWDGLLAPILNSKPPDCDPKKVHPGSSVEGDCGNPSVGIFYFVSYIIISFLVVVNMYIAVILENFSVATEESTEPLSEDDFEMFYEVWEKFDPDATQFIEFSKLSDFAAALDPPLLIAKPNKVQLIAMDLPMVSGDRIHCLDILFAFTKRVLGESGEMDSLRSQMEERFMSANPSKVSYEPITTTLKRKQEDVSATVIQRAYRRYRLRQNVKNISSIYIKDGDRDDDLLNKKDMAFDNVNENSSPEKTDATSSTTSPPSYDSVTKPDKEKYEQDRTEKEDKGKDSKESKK

Turning to `COc1cc([C@@H]2C[C@H]2C(F)(F)F)ccc1-n1c(=O)ccc2cc(S(=O)(=O)Nc3ccon3)c(F)cc21` (atropisomer, axis not shown; (P)) [Example 47, (P)-7-fluoro-N-(isoxazol-3-yl)-1-(2-methoxy-4-((1R,2R)-2-(trifluoromethyl)cyclopropyl)phenyl)-2-oxo-1,2-dihydroquinoline-6-sulfonamide], the IC50 stood at 12 nM.

In the case of `COc1cc([C@H]2C[C@@H]2C(F)(F)F)c(F)cc1-n1c(=O)ccc2cc(S(=O)(=O)Nc3ccon3)ccc21` (atropisomer, axis not shown; (P)) [Example 4, (P)-1-(5-fluoro-2-methoxy-4-((1S,2S)-2-(trifluoromethyl)cyclopropyl)phenyl)-N-(isoxazol-3-yl)-2-oxo-1,2-dihydroquinoline-6-sulfonamide], the concentration for half-maximal inhibition (IC50) came out at 11 nM.

On to `COc1cc([C@@H]2C[C@H]2C(F)(F)F)c(F)cc1-n1c(=O)ccc2cc(S(=O)(=O)Nc3ncccn3)ccc21` (atropisomer, axis not shown; (P)) [Example 20, (P)-1-(5-fluoro-2-methoxy-4-((1R,2R)-2-(trifluoromethyl)cyclopropyl)phenyl)-2-oxo-N-(pyrimidin-2-yl)-1,2-dihydroquinoline-6-sulfonamide], for which the IC50 amounted to 24 nM.

`COc1cc([C@@H]2C[C@H]2C(F)(F)F)c(F)cc1-n1c(=O)ccc2cc(S(=O)(=O)Nc3ccon3)ccc21` (racemic) [Example 3, trans-1-(5-fluoro-2-methoxy-4-(2-(trifluoromethyl)cyclopropyl)phenyl)-N-(isoxazol-3-yl)-2-oxo-1,2-dihydroquinoline-6-sulfonamide]: the IC50 was determined as 23 nM.

Take `COc1cc([C@H]2C[C@@H]2C)c(F)cc1-n1c(=O)ccc2cc(S(=O)(=O)Nc3ccon3)ccc21` (atropisomer, axis not shown; (P)) [Example 7, (P)-1-(5-fluoro-2-methoxy-4-((1S,2S)-2-methylcyclopropyl)phenyl)-N-(isoxazol-3-yl)-2-oxo-1,2-dihydroquinoline-6-sulfonamide]: the IC50 came out at 16 nM.

Consider `COc1cc([C@H]2C[C@@H]2C(F)(F)F)c(F)cc1-n1c(=O)ccc2cc(S(=O)(=O)Nc3cccnn3)ccc21` (atropisomer, axis not shown; (P)) [Example 17, (P)-1-(5-fluoro-2-methoxy-4-((1S,2S)-2-(trifluoromethyl)cyclopropyl)phenyl)-2-oxo-N-(pyridazin-3-yl)-1,2-dihydroquinoline-6-sulfonamide], for which the IC50 came to 16 nM.

As for `COc1cc([C@@H]2C[C@H]2C)c(F)cc1-n1c(=O)ccc2cc(S(=O)(=O)Nc3ccon3)ccc21` (atropisomer, axis not shown; (P)) [Example 6, (P)-1-(5-fluoro-2-methoxy-4-((1R,2R)-2-methylcyclopropyl)phenyl)-N-(isoxazol-3-yl)-2-oxo-1,2-dihydroquinoline-6-sulfonamide], the IC50 was 20 nM.

For the molecule `COc1cc([C@@H]2C[C@H]2C(F)(F)F)c(Cl)cc1-n1c(=O)ccc2cc(S(=O)(=O)Nc3ccon3)ccc21` (atropisomer, axis not shown; (P)) [Example 18, (P)-1-(5-chloro-2-methoxy-4-((1R,2R)-2-(trifluoromethyl)cyclopropyl)phenyl)-N-(isoxazol-3-yl)-2-oxo-1,2-dihydroquinoline-6-sulfonamide], the IC50 worked out at 7 nM.

Turning to `COc1cc(C2(C(F)(F)F)CC2)c(Cl)cc1-n1c(=O)ccc2cc(S(=O)(=O)Nc3ccon3)ccc21` (atropisomer, axis not shown; (P)) [Example 24, (P)-1-(5-chloro-2-methoxy-4-(1-(trifluoromethyl)cyclopropyl)phenyl)-N-(isoxazol-3-yl)-2-oxo-1,2-dihydroquinoline-6-sulfonamide], the concentration for half-maximal inhibition (IC50) is 6 nM.

Consider `COc1cc([C@@H]2C[C@H]2c2ccccc2)c(F)cc1-n1c(=O)ccc2cc(S(=O)(=O)Nc3ccon3)ccc21` (atropisomer, axis not shown; (P)) [Example 8, (P)-1-(5-fluoro-2-methoxy-4-((1R,2R)-2-phenylcyclopropyl)phenyl)-N-(isoxazol-3-yl)-2-oxo-1,2-dihydroquinoline-6-sulfonamide], for which the IC50 was found to be 8 nM.

For `COc1cc([C@H]2C[C@@H]2C(F)(F)F)c(F)cc1-n1c(=O)ccc2cc(S(=O)(=O)Nc3ncco3)ccc21` (atropisomer, axis not shown; (P)) [Example 36, (P)-1-(5-fluoro-2-methoxy-4-((1S,2S)-2-(trifluoromethyl)cyclopropyl)phenyl)-N-(oxazol-2-yl)-2-oxo-1,2-dihydroquinoline-6-sulfonamide], the IC50 turned out to be 6 nM.

Take `COc1cc([C@@H]2CC2(F)F)c(F)cc1-n1c(=O)ccc2cc(S(=O)(=O)Nc3ccon3)ccc21` (atropisomer, axis not shown; (P)) [Example 11, (P)-(S)-1-(4-(2,2-difluorocyclopropyl)-5-fluoro-2-methoxyphenyl)-N-(isoxazol-3-yl)-2-oxo-1,2-dihydroquinoline-6-sulfonamide]: the IC50 is 59 nM.

For the molecule `COc1cc([C@@H]2C[C@H]2C(F)(F)F)c(Cl)cc1-n1c(=O)ccc2cc(S(=O)(=O)Nc3ncccn3)ccc21` (atropisomer, axis not shown; (P)) [Example 13, (P)-1-(5-chloro-2-methoxy-4-((1R,2R)-2-(trifluoromethyl)cyclopropyl)phenyl)-2-oxo-N-(pyrimidin-2-yl)-1,2-dihydroquinoline-6-sulfonamide], the IC50 is 12 nM.

In the case of `COc1cc([C@H]2C[C@@H]2C(F)(F)F)c(Cl)cc1-n1c(=O)ccc2cc(S(=O)(=O)Nc3ccon3)ccc21` (atropisomer, axis not shown; (P)) [Example 19, (P)-1-(5-chloro-2-methoxy-4-((1S,2S)-2-(trifluoromethyl)cyclopropyl)phenyl)-N-(isoxazol-3-yl)-2-oxo-1,2-dihydroquinoline-6-sulfonamide], the IC50 was found to be 6 nM.

As to `COc1cc(C2(C(F)(F)F)CC2)c(F)cc1-n1c(=O)ccc2cc(S(=O)(=O)Nc3ncccn3)ccc21` (atropisomer, axis not shown; (P)) [Example 23, (P)-1-(5-fluoro-2-methoxy-4-(1-(trifluoromethyl)cyclopropyl)phenyl)-2-oxo-N-(pyrimidin-2-yl)-1,2-dihydroquinoline-6-sulfonamide], the IC50 was found to be 16 nM.

In the case of `COc1cc(C2(C(F)(F)F)CC2)c(Cl)cc1-n1c(=O)ccc2cc(S(=O)(=O)Nc3ncccn3)ccc21` (atropisomer, axis not shown; (P)) [Example 25, (P)-1-(5-chloro-2-methoxy-4-(1-(trifluoromethyl)cyclopropyl)phenyl)-2-oxo-N-(pyrimidin-2-yl)-1,2-dihydroquinoline-6-sulfonamide], the concentration for half-maximal inhibition (IC50) is 22 nM.

Turning to `COc1cc([C@@H]2C[C@H]2C(F)(F)F)c(F)cc1-n1c(=O)cc(F)c2cc(S(=O)(=O)Nc3ccon3)ccc21` (atropisomer, axis not shown; (P)) [Example 44, (P)-4-fluoro-1-(5-fluoro-2-methoxy-4-((1R,2R)-2-(trifluoromethyl)cyclopropyl)phenyl)-N-(isoxazol-3-yl)-2-oxo-1,2-dihydroquinoline-6-sulfonamide], the IC50 amounted to 5 nM.

(Values after US20230234948A1, “CYCLOPROPYL DIHYDROQUINOLINE SULFONAMIDE COMPOUNDS” (AMGEN INC., priority 2020, published 2023).)
